Results: paper PMC5259734, “Identification of Key Residues for Urate Specific Transport in Human Glucose Transporter 9 (hSLC2A9)” (Scientific Reports, 2017)
pIC50: −log10 of the molar value.

Key:
Format in all cases: cell-based
[1] = target: T1, hSLC2A9b (human glucose transporter 9) (Homo sapiens, UniProt Q9NRM0); test: […] fructose uptake in Xenopus oocytes
T1 construct: gene SLC2A9; hSLC2A9b isoform (shorter N-terminus), WT
T1 sequence (Q9NRM0 1-511 isoform Q9NRM0-2 limits assumed): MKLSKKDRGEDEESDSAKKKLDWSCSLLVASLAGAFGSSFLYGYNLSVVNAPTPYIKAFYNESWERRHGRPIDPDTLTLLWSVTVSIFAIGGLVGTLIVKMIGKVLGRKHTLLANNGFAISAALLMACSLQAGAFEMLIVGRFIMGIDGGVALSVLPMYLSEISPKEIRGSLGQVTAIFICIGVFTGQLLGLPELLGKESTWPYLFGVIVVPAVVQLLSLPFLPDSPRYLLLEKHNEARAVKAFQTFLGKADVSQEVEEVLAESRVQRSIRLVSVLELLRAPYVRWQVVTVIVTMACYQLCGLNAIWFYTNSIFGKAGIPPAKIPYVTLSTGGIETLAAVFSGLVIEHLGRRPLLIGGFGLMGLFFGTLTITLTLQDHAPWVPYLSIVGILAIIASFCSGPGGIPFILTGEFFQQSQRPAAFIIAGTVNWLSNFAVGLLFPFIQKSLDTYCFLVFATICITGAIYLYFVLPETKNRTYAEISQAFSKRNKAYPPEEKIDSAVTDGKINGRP

[2] = target: T1, hSLC2A9b (human glucose transporter 9); test: TEVC inhibition of urate-induced current and […] urate flux in Xenopus oocytes
[3] = target: T1, hSLC2A9b (human glucose transporter 9); test: […] urate flux kinetics and TEVC in Xenopus oocytes

## OC[C@H]1OC(O)(CO)[C@@H](O)[C@@H]1O (stereo partly drawn) [fructose]
[1]
  14C fructose uptake in Xenopus oocytes: all mutants transported fructose similarly as WT hSLC2A9b

## O=S(=O)(O)c1cc[c]([Hg][Cl])cc1 [pCMBS]
[2]
  pIC50: 4.28

## O=c1[nH]c(=O)c2[nH]c(=O)[nH]c2[nH]1 [urate]
[3]
  14C urate flux kinetics and TEVC in Xenopus oocytes: both WT hSLC2A9b and its cysteine mutants exhibited Michaelis-Menten type kinetics for urate transport
